Test results taken from US5202127A, “Moth-proofing method using trioxane as sole active” (Mitsubishi Gas Chemical Co., Inc., priority 1986, dated 1993).

What was measured:
[1] = tested on: larvae of case making clothes moths; test: killing of case making clothes moth larvae in plugged bottle at 25° C. for 4 hours (Tables 3 and 4); assay type: in vivo; conditions: 10 larvae, chemicals in the solid state, 2 g, 4 hours (Table 4)
Procedure: Granular trioxane containing 1 ppm of formic acid and 2 ppm of formaldehyde was dissolved in various organic solvents at a predetermined concentration to prepare organic liquid insect-proofing agents.
Square absorbent cotton piece having a side of 3 cm, which was impregnated with 2 g of the organic liquid insect-proofing agent, was placed in the bottom portion of a glass bottle having a volume of 500 ml, and an insect cage of a metal net having a diameter of 3 cm, which contained 10 larvae of case making clothes moths having a body length of about 6 mm and a square wool fabric having a side of 3 cm, was secured the absorbent cotton 5 cm apart therefrom. Then, the bottle was plugged and allowed to stand in a thermostat chamber maintained at 25° C. for 4 hours. Then, the cage was taken up and the state of the larvae of case making clothes was checked.
Each of p-dichlorobenzene, naphthalene and dl-camphor was used in the form of a granular reagent. […] One pack of "Mothproofing Agent for Drawers" supplied by Dainippon Jochugiku (corresponding to 12.5 liters) was used as the pyrethroid type chemicals. No chemical was used in Comparative Example 13.

[2] = tested on: larvae of varied carpet beetles; test: test for controlling harmful insects to clothes, varied carpet beetle larvae (Table 2); assay type: in vivo; parameters: key to Eating damage degree after 24 hours: A: no eating damage; B: eating damage was only a trace; C: intermediate between ranks B and D; D: large eating damage (damage in absence of insect-proofing agent); conditions: for Number of dead insects after 6 hours / Number of dead insects after 24 hours: 10 varied carpet beetle larvae, 500 ml bottle, 24° to 26° C.; for Eating damage degree after 24 hours: wool fabric, varied carpet beetle larvae
Procedure: (§1) The solid insect-proofing agent was subjected to the test for controlling harmful insects to clothes.
(§2) A glass bottle having a volume of 500 ml was charged with 10 harmful insects and one square wool fabric piece having a side of 3 cm, and one pellet of the solid insect-proofing agent was placed apart from the wool fabric piece. The bottle was tightly plugged and was allowed to stand in the dark place at a temperature of 24° to 26° C.
(§3) For comparison, commercially available moth-proofing agents, p-dichlorobenzene and naphthalene (each was in the form of a flat disk-shaped pellet having a diameter of 21 mm), were similarly tested, and the test was carried out without using any moth-proofing agent.
(§4) The results of the tests conducted on larvae of case making clothes moths having a body length of about 6 mm as the harmful insects (Example 6 and Comparative Examples 1 to 3) are shown in Table 1, and the results of the test conducted on larvae of varied carpet beetles having a body length of about 4 mm as harmful insects (Example 7 and Comparative Examples 4 to 6) are shown in Table 2.

[3] = tested on: larvae of case making clothes moths; test: test for controlling harmful insects to clothes, case making clothes moth larvae (Table 1); assay type: in vivo; parameters: key to Eating damage degree after 24 hours: A: no eating damage; B: eating damage was only a trace; C: intermediate between ranks B and D; D: large eating damage (damage in absence of insect-proofing agent); conditions: for Number of dead insects after 6 hours / Number of dead insects after 24 hours: 10 case making clothes moth larvae, 500 ml bottle, 24° to 26° C.; for Eating damage degree after 24 hours: wool fabric, case making clothes moth larvae
Procedure: as §1, §2, §3, §4

[4] = cited from earlier work
insects = test: insecticidal force and repellency, general statement; assay type: in vivo
[5] = tested on: small fruit flies (drosophila); conditions: cited from earlier work
salmonellae = conditions: cited from earlier work
mice = conditions: cited from earlier work
[6] = cited from earlier work; remark: listed apart in the source
rats [7] = conditions: oral administration to rats; cited from earlier work
rats [8] = conditions: cited from earlier work
[9] = it is said; cited from earlier work

Structure (SMILES)	Number of Killed Insects [1]	Number of dead insects after 6 hours [2]	Number of dead insects after 24 hours [2]	Eating damage degree after 24 hours [2]	Number of dead insects after 6 hours [3]	Number of dead insects after 24 hours [3]	Eating damage degree after 24 hours [3]	solubility in water [4]	also measured
c1ccc2ccccc2c1 [naphthalene]	0	0	0	C	0	2	B	hardly soluble or is insoluble in water	–
C1OCOCO1 [trioxane, 1,3,5-trioxane]	–	–	–	–	–	–	–	soluble in water	insecticidal force (insects; compared with p-dichlorobenzene): weaker than that of p-dichlorobenzene; repellency to insects (insects; in vivo): sufficient repellency to insects; mutagenicity [5]: no mutagenicity; mutagenicity (salmonellae): no mutagenicity; mutagenicity (mice): no mutagenicity; stability in highly acidic aqueous solution ([6]; highly acidic aqueous solution): hydrolyzed; stability in neutral or alkaline aqueous solution ([6]; neutral or alkaline aqueous solution): stable; hydrolyzability ([6]; normal state): very low; stability in air ([6]; normal temperature in air): very stable; LD50 (rats [7]): 8,500 mg/kg; solubility in other various organic solvents ([4]; organic solvents other than saturated hydrocarbons): highly soluble; solubility in saturated hydrocarbons ([4]; saturated hydrocarbons): poor; mutagenicity (rats [8]): no mutagenicity
Clc1ccc(Cl)cc1 [p-dichlorobenzene]	2	3	9	A	5	10	A	hardly soluble or is insoluble in water	health effects [9]: causes liver troubles, lung granulomata, cataract and dermatitis
CC12CCC(CC1=O)C2(C)C (stereo not drawn) [camphor]	–	–	–	–	–	–	–	hardly soluble or is insoluble in water	–
CC1(C)[C@@H]2CC[C@@]1(C)C(=O)C2 (relative stereo) [dl-camphor]	0	–	–	–	–	–	–	–	–
